Where two headings read alike, the source gives them in different places.
Molecular target: BTK (Homo sapiens, UniProt Q06187)
Test: biochemical
[1] = read-out: BTK inhibition (%), 0.75 uM BTK, […] probe 3l, 15 min preincubation

Chain of BTK (Q06187 402-655 limits assumed): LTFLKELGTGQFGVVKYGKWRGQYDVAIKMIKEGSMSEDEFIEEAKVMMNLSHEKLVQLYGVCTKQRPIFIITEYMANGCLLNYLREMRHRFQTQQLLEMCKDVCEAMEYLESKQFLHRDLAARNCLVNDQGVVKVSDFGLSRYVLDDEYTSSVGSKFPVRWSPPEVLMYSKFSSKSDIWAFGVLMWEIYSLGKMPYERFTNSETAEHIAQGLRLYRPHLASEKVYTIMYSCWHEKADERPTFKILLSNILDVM

| inhibition at 10 µM [1] [%] | SMILES | inhibition at 10 µM (read-out: BTK inhibition (%)) [%] |
| --- | --- | --- |
| 15.4 | COC(=O)CC[C@H](NC(=O)[C@H](CC(=O)OC)NC(=O)OCc1ccccc1)C(=O)N[C@H](C(=O)N[C@@H](CC(=O)OC)C(=O)CF)C(C)C [PCM-0215362] | – |
| -6.9 | N#C/C(=C(\O)c1ccc(Cl)cc1Cl)c1nc2ccccc2c(=O)[nH]1 [PCM-0215733] | – |
| 11.9 | O=P(O)(O)OC(CO)CO [PCM-0215880] | – |
| 10.2 | CCOCCn1c(C2CCN(CCc3ccc(C(C)(C)C(=O)O)cc3)CC2)nc2ccccc21 [PCM-0215887] | – |
| 15.4 | O=C(CCCCCCC(=O)N/N=C/c1ccc(N(c2ccccc2)c2ccccc2)cc1)NO [PCM-0215937] | – |
| 2.3 | NS(=O)(=O)c1ccc(NC(=S)N2CCN(C/C=C/c3ccccc3)CC2)cc1 [PCM-0215808] | – |
| -1.5 | CC(=O)c1cc(O)ccc1O [PCM-0216293] | – |
| -27.8 | C=C1C[C@@]23CC[C@H]4[C@@](C)(CCC[C@@]4(C)C(=O)O[C@@H]4O[C@H](CO)[C@@H](O)[C@H](O)[C@H]4O)[C@@H]2CC[C@]1(O[C@@H]1O[C@H](CO)[C@@H](O)[C@H](O)[C@H]1O[C@@H]1O[C@H](CO)[C@@H](O)[C@H](O)[C@H]1O)C3 [PCM-0216121] | – |
| -10 | O=C(O)c1cc(O)cc(Cl)c1 [PCM-0216556] | – |
| 23.9 | Nc1ncnc2c1c(I)cn2[C@@H]1O[C@H](CO)[C@@H](O)[C@H]1O [PCM-0215664] | – |
| 2.3 | O=C1C2=C(CCN(Cc3ccccc3)C2)N2CCN=C2N1Cc1ccc(C(F)(F)F)cc1 [PCM-0215923] | – |
| -3.9 | C=C1C[C@@]23CC[C@H]4[C@@](C)(CCC[C@@]4(C)C(=O)O)[C@@H]2CC[C@]1(O[C@@H]1O[C@H](CO)[C@@H](O)[C@H](O)[C@H]1O[C@@H]1O[C@H](CO)[C@@H](O)[C@H](O)[C@H]1O)C3 [PCM-0216480] | – |
| -14.7 | CCC(CC)(NC(=O)C(C)C)C(=O)N[C@@H](CCCN=C(N)N)C(=O)NC1(C(=O)NC(c2ccc(F)cc2)c2ccc(F)cc2)CCCC1 [PCM-0215267] | – |
| 2.3 | COc1cn(-c2ccc(-n3cccn3)cc2F)nc(-c2ccnn2-c2ccccc2)c1=O [PCM-0215765] | – |
| 5.5 | CC(C)(CO)n1cc(C(=O)c2cncc(NC(=O)Cc3ccc(Cl)cn3)c2)c2cnc(N)nc21 [PCM-0215853] | – |
| 79.3 | Cc1ccc(Nc2cc(N[C@@H]3CCCC[C@@H]3N)nnc2C(N)=O)nc1C [PCM-0215730] | – |
| 91 | C=CC(=O)N1CC[C@@H](Oc2nc(Nc3ccc(N4CCC(N5CCN(C)CC5)CC4)cc3)c(C(N)=O)nc2CC)C1 [PCM-0215788] | – |
| 17.9 | c1ccc2c(Oc3nc(Nc4ccc(N5CCOCC5)cc4)c4ncn(C5CCCCC5)c4n3)cccc2c1 [PCM-0215227] | – |
| 101 | c1nc2nc(Nc3ccc(N4CCOCC4)cc3)nc(NC3CCCCC3)c2[nH]1 [PCM-0215406] | – |

More lines, now with the values behind:

| SMILES | inhibition at 10 µM [1] [%] | inhibition at 10 µM (read-out: BTK inhibition (%)) [%] |
| --- | --- | --- |
| Cc1cc(OCc2nnc(SC3CCCC3)n2-c2cccnc2)ccc1-c1ccc(S(C)(=O)=O)cc1 [PCM-0095789] | 0.8 | – |
| C=C[C@H]1CN2CC[C@]3(C(=O)Nc4ccccc43)[C@@H]2C[C@@H]1/C(=C\OC)C(=O)OC [PCM-0216538] | 6.2 | – |
| Cc1ncc([N+](=O)[O-])n1CCO [PCM-0085759] | -5.4 | – |
| CC1(C)CCC(CN2CCN(c3ccc(C(=O)NS(=O)(=O)c4ccc(NCC5CCOCC5)c([N+](=O)[O-])c4)c(Oc4cnc5[nH]ccc5c4)c3)CC2)=C(c2ccc(Cl)cc2)C1 [PCM-0095632] | -5.4 | – |
| CN[C@@H]1[C@H](O)[C@H](NC)[C@H]2O[C@@]3(O)C(=O)C[C@@H](C)O[C@H]3O[C@@H]2[C@H]1O [PCM-0214688] | 2.3 | – |
| O=C1C[C@@H](c2ccc(O)cc2)Oc2cc(O)ccc21 [PCM-0214979] | -9.3 | – |
| COc1cc2ncnc(Nc3ccc(Cl)cc3F)c2cc1OC [PCM-0095361] | 31 | – |
| CC(=O)Nc1cccc(-n2c(=O)n(C3CC3)c(=O)c3c(Nc4ccc(I)cc4F)n(C)c(=O)c(C)c32)c1 [PCM-0095350] | -10.3 | – |
| COC(=O)C1=C(C)NC(C)=C(C(=O)OC(C)C)C1c1cccc2nonc12 (stereo not shown) [PCM-0086297] | -2.3 | – |
| Nc1nc2c(ncn2COC(CO)CO)c(=O)[nH]1 [PCM-0065253] | -3.9 | – |
| CC1=C(C(=O)O)N2C(=O)[C@@H](NC(=O)[C@H](N)c3ccccc3)[C@H]2SC1 [PCM-0095179] | 4.3 | – |
| CN(C)C(=O)Nc1cccc(-c2ccc(N(C)C)cc2)c1 [PCM-0095740] | -3.1 | – |
| COc1cccc2c1C(=O)c1c(O)c3c(c(O)c1C2=O)C[C@@](O)(C(=O)CO)C[C@@H]3O[C@H]1C[C@H](N)[C@H](O)[C@H](C)O1 [PCM-0086032] | 42.8 | – |
| COC(=O)C[C@](O)(CCCC(C)(C)O)C(=O)O[C@@H]1C(OC)=C[C@]23CCCN2CCc2cc4c(cc2[C@H]13)OCO4 [PCM-0216341] | 4.6 | – |
| CC1=C[C@@H]2C(=O)[C@]3(C=C(C)[C@H](O)[C@@]3(O)[C@@H]1O)[C@H](C)C[C@@H]1[C@H]2C1(C)C [PCM-0216603] | – | 3.9 |
| CC(C)(C)C(O)/C(=C\c1ccc(Cl)cc1)n1cncn1 (stereo not shown) [PCM-0214890] | -16.3 | – |
| CCOC(=O)C1=C(C)NC(C)=C(C(=O)OC)C1c1cccc(Cl)c1Cl (stereo not shown) [PCM-0065133] | 17.9 | – |

| SMILES | inhibition at 10 µM [1] [%] | inhibition at 10 µM (read-out: BTK inhibition (%)) [%] |
| --- | --- | --- |
| O=c1[nH]cnc2c1ncn2[C@@H]1O[C@H](CO)[C@@H](O)[C@H]1O [PCM-0094864] | -3.1 | – |
| CN1CCN(c2c(F)cc3c(=O)c(C(=O)O)cn4c3c2OCN4C)CC1 [PCM-0095142] | 0 | – |
| CCCN(CCC)S(=O)(=O)c1ccc(C(=O)O)cc1 [PCM-0086122] | -4.7 | – |
| NC(=O)c1cnccn1 [PCM-0065550] | 5.4 | – |
| O=[N+]([O-])c1ncc[nH]1 [PCM-0094820] | – | 3.1 |
| Cc1noc(-c2ccc(CSCCC(=O)O)cc2)c1NC(=O)OC(C)c1ccccc1Cl (stereo not shown) [PCM-0094905] | -21 | – |
| CC1CNC(=O)NC1=O (stereo not shown) [PCM-0214881] | -4.7 | – |
| CC(C)[C@H](N)C(=O)OCCOCn1cnc2c(=O)[nH]c(N)nc21 [PCM-0086005] | -7.8 | – |
| CC(C)=CCC[C@](C)(O)[C@H]1CC[C@]2(C)[C@@H]1[C@H](O)C[C@@H]1[C@@]3(C)CC[C@H](O)C(C)(C)[C@@H]3CC[C@]12C [PCM-0214857] | 21 | – |
| Fc1cc(F)c2c(c1)[C@H]1C=CC[C@H]1C(c1cccnc1)N2 (stereo partly shown) [PCM-0215243] | -18.5 | – |
| O=C(O)CCC1CCC(c2cc(F)ccc2F)(S(=O)(=O)c2ccc(Cl)cc2)CC1 (stereo not shown) [PCM-0095325] | -15.2 | – |
| O=C(Nc1ccc(Br)cc1)c1c(O)cccc1O [PCM-0215136] | 3.9 | – |
| O=C1CCc2ccc(O)cc2N1 [PCM-0215070] | 9.3 | – |
| Cc1ccc(C=C2C(=O)C3(C)CCC2C3(C)C)cc1 (stereo not shown) [PCM-0214882] | 5.4 | – |
| NCC[C@H](O)C(=O)N[C@@H]1C[C@H](N)[C@@H](O[C@H]2O[C@H](CN)[C@@H](O)[C@H](O)[C@H]2O)[C@H](O)[C@H]1O[C@H]1O[C@H](CO)[C@@H](O)[C@H](N)[C@H]1O [PCM-0215174] | 9.4 | – |
| C[C@@H]1O[C@@H](Oc2c(-c3cc(O)c(O)c(O)c3)oc3cc(O)cc(O)c3c2=O)[C@H](O)[C@H](O)[C@H]1O [PCM-0089676] | -2.3 | – |
